Where two headings read alike, the source gives them in different places.
Tests used:
[1] = tested on: DENV-R2A (Rluc-expressing DENV, serotype 2 strain 16681); experiment: microbe, parasite or virus in culture; assay type: cell-based, Dengue virus; settings: for activity at 50 µM: Dengue virus, Huh7.5, 48 h; for inhibitory activity against DENV-R2A (SAR, in words) / antiviral activity against DENV-R2A (SAR, in words): 50 μM; for antiviral activity against DENV-R2A (SAR, in words): NPP3C analogues
Huh7.5 cells = experiment: Cell viability, CellTiter-Glo luminescent assay
[2] = read-out: DENV-R2A replication (Fold DMSO), 6A1HI analogues, test concentration = 50 µM, Huh7.5 cells
[3] = read-out: DENV-R2A replication (Fold DMSO), Table S3, NPP3C analogues, 50 µM, Huh7.5, 2 days postinfection
[4] = read-out: DENV-R2A replication (fold DMSO), Table 2, 6A1HI analogues, 50 μM, Huh7.5, 2 days postinfection
[5] = 6A1HI analogues, test concentration = 50 µM, Huh7.5 cells
[6] = Table 2, 6A1HI analogues, 50 μM, Huh7.5, 2 days
[7] = Table S3, NPP3C analogues, 50 µM, Huh7.5
[8] = read-out: DENV-R2A replication (fold DMSO), Table 1, NPP3C analogues, 50 μM, Huh7.5, 2 days postinfection
[9] = Table S3, NPP3C analogues, 50 µM, Huh7.5, 2 days postinfection
[10] = Table 1, NPP3C analogues, 50 μM, Huh7.5, 2 days

Structure (SMILES)	activity at 50 µM [1, 2] [%]	activity at 50 µM [1, 3] [%]	activity at 50 µM [1, 4] [%]	Cell viability (Fold DMSO) (Huh7.5 cells; [5])	Cell viability (Fold DMSO) (Huh7.5 cells; [6]) [fold DMSO]	Cell viability (Fold DMSO) (Huh7.5 cells; [7])	inhibitory activity against DENV-R2A (SAR, in words) ([1]; 6A1HI analogues)	activity at 50 µM [1, 8] [%]	DENV-R2A replication (Fold DMSO) [1, 5] [Fold DMSO]	DENV-R2A replication (Fold DMSO) [1, 9] [Fold DMSO]	Cell viability (Fold DMSO) (Huh7.5 cells; [10]) [fold DMSO]	antiviral activity against DENV-R2A (SAR, in words) [1]
OCc1ccc2cn[nH]c2c1 [Compound 3]	110	89	110	0.93	0.93	0.94						
CC(=O)c1ccc2cn(C)nc2c1 [Compound 4]	97	105	97	0.75	0.75	0.96	loss of inhibitory activity					
NCc1ccc2cn[nH]c2c1 [Compound 6]	96	55	96	0.76	0.76	0.77						
O=C(Nc1ccccc1)N1CCNCC1 [Compound 7]	105		105					82				
CC(=O)c1cccc2cn[nH]c12 [Compound 9]	90	107	90	1.03	1.03	0.96	inhibitory activity was completely lost					
Nc1cccc(-c2cccnc2)c1 [Compound 10]				0.93		0.93			1.00	1.04		
Oc1ccc2[nH]ncc2c1 [Compound 18]	106	101	106	0.98	0.98	0.95						
O=C(Nc1ccncc1)c1ccccc1 [Compound 28]				0.48		1.05			0.09	1.05		
O=C(Nc1ccccc1Cl)c1cccnc1 [Compound 29]	55			0.96		0.95		99			0.95	
O=C(c1ccccc1)c1cccnc1 [Compound 33]				0.89		0.95			0.95	1.14		
O=C(NC1CC1)c1ccc(C(F)(F)F)nc1 [Compound 41]				0.98		0.90			1.13	1.24		
CC(=O)c1ccc2c(c1)OCO2 [Compound 42]	107	153	107	0.93	0.93	1.15	loss of inhibitory activity					
O=C(Nc1cccc(B(O)O)c1)c1cccnc1 [Compound 52]	115		115					107				
O=C(NNc1ccccc1)c1ccncc1 [Compound 54]	106			0.95		0.67		37			0.67	retains little activity, if any
Nc1cccc(NC(=O)c2cccnc2)c1 [Compound 55]	134			1.08		0.96		75			0.96	
CC(Nc1ccccc1)c1cccnc1 (stereo not drawn) [Compound 56]	114			0.98		0.94		147			0.94	retains little activity, if any
Nc1ccc(C(=O)Nc2ccccc2)cc1 [Compound 61]				0.83		0.98			1.09	0.98		
O=C(Nc1ccccc1)c1ccc(C(F)(F)F)nc1 [Compound 62]				1.03		0.79			0.93	0.71		
c1ccc(NCc2cccnc2)cc1 [Compound 63]	81							138				retains little activity, if any
O=C(Nc1ccc(C(F)(F)F)cc1)c1cccnc1 [Compound 65]	115			1.17		0.87		98			0.87	
N#CC(Cc1cccnc1)C(=O)Nc1ccccc1 (stereo not drawn) [Compound 68]				1.03		0.93			1.02	1.79		
O=C(NNC(=O)c1ccncc1)Nc1ccccc1 [Compound 69]				1.02		0.88			0.98	1.32		
NC(=O)c1ccc2cn[nH]c2c1 [Compound 75]	106		106	0.99	0.99							

Reference: article PMC9933715 (Antimicrobial Agents and Chemotherapy, 2023)
